Experimental data from EP4810484A1, “NEUROACTIVE ANDROGEN RECEPTOR MODULATOR AND USE THEREOF” (Endochem Pharmaceuticals (Beijing) Co., Ltd., priority 2023, dated 2025).

Tests used:
[1] = Mouse blood-brain barrier permeation assay (LC-MS/MS of serum and brain); assay type: in vivo, C57BL/6J mice; settings: for concentrations of the compound detected in serum and brain (in words): 20 mg/kg intraperitoneal
Protocol: Mouse blood-brain barrier permeation assay
Blood was collected by decapitation from the mice (each time point/3 mice) at the following time points: 30 min, 1 h, 2 h, 3 h, 4 h, 8 h, and brain tissue and blood were harvested at 12 h, 24 h, 36 h, 48 h and 72 h. • (3) When collecting serum, heparin sodium blood collection tubes were used.
The supernatant was filtered through a 0.22 µm filter and analyzed by LC-MS/MS.

[2] = Log P (Table 1, no method described)
[3] = target: T1, recombinant human androgen receptor (AR) protein (Homo sapiens, UniProt P10275); experiment: Small molecule-protein affinity (protein-ligand coupling) assay, Biacore T200 SPR; assay type: binding; settings: summary of Table 1
T1 construct: RPB252Hu03, Ile673-His918 with N-terminal His Tag; His tag (N); purchased CLOUD-CLONE CORP; WUHAN RPB252Hu03
T1 sequence (P10275 673-918): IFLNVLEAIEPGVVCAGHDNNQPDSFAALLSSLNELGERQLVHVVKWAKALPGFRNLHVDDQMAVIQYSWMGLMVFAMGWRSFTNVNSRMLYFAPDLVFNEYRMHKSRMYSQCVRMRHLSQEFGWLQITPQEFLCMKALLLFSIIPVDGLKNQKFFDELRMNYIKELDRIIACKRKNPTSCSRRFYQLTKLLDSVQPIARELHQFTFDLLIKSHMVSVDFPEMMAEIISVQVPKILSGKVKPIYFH

[4] = target: T2, androgen receptors (Homo sapiens, UniProt P10275); experiment: Androgen Receptor Reporter Gene Assay in plasmid-transfected HEK293T cells; assay type: cell-based; settings: HEK-293T
T2 construct: expressed in transfected cells; host or cells: HEK293T (ATCC, CRL-3216)
T2 sequence (P10275 1-920): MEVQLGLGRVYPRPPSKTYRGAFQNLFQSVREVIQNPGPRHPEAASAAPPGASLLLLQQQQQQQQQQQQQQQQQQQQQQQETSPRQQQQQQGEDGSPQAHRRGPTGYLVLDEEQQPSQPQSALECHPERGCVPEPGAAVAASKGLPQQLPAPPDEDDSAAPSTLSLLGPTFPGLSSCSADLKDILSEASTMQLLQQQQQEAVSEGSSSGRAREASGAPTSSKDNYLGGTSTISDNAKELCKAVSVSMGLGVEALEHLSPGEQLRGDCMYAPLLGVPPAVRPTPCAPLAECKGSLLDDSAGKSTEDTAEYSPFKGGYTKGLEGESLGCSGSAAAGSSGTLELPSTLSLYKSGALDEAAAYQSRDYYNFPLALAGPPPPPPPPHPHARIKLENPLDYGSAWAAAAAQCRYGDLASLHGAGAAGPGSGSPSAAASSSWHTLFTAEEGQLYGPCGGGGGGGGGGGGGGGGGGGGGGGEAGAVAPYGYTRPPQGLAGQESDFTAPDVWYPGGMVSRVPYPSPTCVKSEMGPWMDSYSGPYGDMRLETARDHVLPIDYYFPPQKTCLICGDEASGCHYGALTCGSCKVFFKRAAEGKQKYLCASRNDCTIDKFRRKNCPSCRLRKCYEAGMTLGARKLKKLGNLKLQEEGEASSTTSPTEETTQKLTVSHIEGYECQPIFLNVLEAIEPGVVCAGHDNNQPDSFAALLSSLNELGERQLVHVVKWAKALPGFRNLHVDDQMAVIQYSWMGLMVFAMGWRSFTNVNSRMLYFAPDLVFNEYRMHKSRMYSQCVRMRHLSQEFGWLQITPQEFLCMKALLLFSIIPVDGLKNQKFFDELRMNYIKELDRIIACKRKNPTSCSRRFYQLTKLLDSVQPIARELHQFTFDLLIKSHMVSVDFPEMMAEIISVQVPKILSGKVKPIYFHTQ

SMILES | concentrations of the compound detected in serum and brain (in words) [1] | logP [2] | other results
CC(C)C(=O)O[C@@](C)(COc1ccc(C#N)cc1)C(=O)Nc1cnc(C#N)c(C(F)(F)F)c1 [Example 21, (S)-1-((6-cyano-5-(trifluoromethyl)pyridin-3-yl)amino)-3-(4-cyanophenoxy)-2-methyl-1-oxopropan-2-yl isobutyrate] | lower concentrations of the compound and higher concentrations of metabolites were detected in serum and brain |  | 
CN(C)CCC(=O)O[C@@](C)(COc1ccc(C#N)cc1)C(=O)Nc1cnc(C#N)c(C(F)(F)F)c1 [Example 14, (S)-1-((6-cyano-5-(trifluoromethyl)pyridin-3-yl)amino)-3-(4-cyanophenoxy)-2-methyl-1-oxopropyl-2-yl 3-(dimethylamino)propanate] |  | 2.86 | 
CN1CCC(C(=O)O[C@@](C)(COc2ccc(C#N)cc2)C(=O)Nc2cnc(C#N)c(C(F)(F)F)c2)CC1 [Example 19, (S)-1-((6-cyano-5-(trifluoromethyl)pyridin-3-yl)amino)-3-(4-cyanophenoxy)-2-methyl-1-oxopropyl-2-yl-1-methylpiperidine-4-carboxylate] |  | 3.2 | 
C[C@](O)(COc1ccc(C#N)cc1)C(=O)Nc1cnc(C#N)c(C(F)(F)F)c1 [Example 3, (S)-N-(6-cyano-5-(trifluoromethyl)pyridin-3-yl)-3-(4-cyanophenoxy)-2-hydroxy-2-methylpropionamide] | certain concentrations of the compound were detected in serum and brain up to 72 h after administration | 2.53 | 
C[C@](O)(COc1ccc(C#N)c(F)c1)C(=O)Nc1cnc(C#N)c(C(F)(F)F)c1 [Example 8, (S)-3-(4-cyano-3-fluorophenoxy)-N-(6-cyano-5-(trifluoromethyl)pyridin-3-yl)-2-hydroxy-2-methylpropionamide] | certain concentrations of the compound were detected in serum and brain up to 72 h after administration |  | 
C[C@](O)(COc1ccc(C#N)cc1)C(=O)Nc1ccc(C#N)c(C(F)(F)F)c1 [Ostarine, reference compound] |  | 3.49 | affinity to the androgen receptor proteins (in words) [3]: no binding affinity; Emax [4]: 78.4%
C[C@@](COc1ccc(C#N)cc1)(OC(=O)c1ccccc1)C(=O)Nc1cnc(C#N)c(C(F)(F)F)c1 [Example 26, (S)-1-((6-cyano-5-(trifluoromethyl)pyridin-3-yl)amino)-3-(4-cyanophenoxy)-2-methyl-1-oxopropan-2-yl benzoate] | lower concentrations of the compound and higher concentrations of metabolites were detected in serum and brain | 4.65 | affinity to the androgen receptor proteins (in words) [3]: strong affinity
C[C@](O)(Cn1cnc(C(F)(F)F)cc1=O)C(=O)Nc1ccc(C#N)c(C(F)(F)F)c1 [Example 2] |  | 3.53 | 
C[C@](O)(Cn1cnc(C(F)(F)F)cc1=O)C(=O)Nc1cnc(C#N)c(C(F)(F)F)c1 [Example 1] |  | 2.62 | 
CCCS(=O)(=O)O[C@@](C)(COc1ccc(C#N)cc1)C(=O)Nc1cnc(C#N)c(C(F)(F)F)c1 [Example 17, (S)-1-((6-cyano-5-(trifluoromethyl)pyridin-3-yl)amino)-3-(4-cyanophenoxy)-2-methyl-1-oxopropan-2-yl propane-1-sulfonate] |  | 3.07 | 
C[C@@](COc1ccc(C#N)nc1)(OC(=O)c1cccnc1)C(=O)Nc1ccc(C#N)c(C(F)(F)F)c1 [Example 11, (S)-1-((4-cyano-3-(trifluoromethyl)phenyl)amino)-3-((6-cyanopyridin-3-yl)oxy)-2-methyl-1-oxopropan-2-yl nicotinate] |  | 3.32 | 
CC(=O)O[C@@](C)(COc1ccc(C#N)cc1)C(=O)Nc1cnc(C#N)c(C(F)(F)F)c1 [Example 24, (S)-1-((6-cyano-5-(trifluoromethyl)pyridin-3-yl)amino)-3-(4-cyanophenoxy)-2-methyl-1-oxopropan-2-yl acetate] |  | 2.76 | bioavailability in the brain ([1]; compared with the compound of Example 3): significantly improved
C[C@@](COc1ccc(C#N)cc1)(OC(=O)c1cccnc1)C(=O)Nc1cnc(C#N)c(C(F)(F)F)c1 [Example 13, (S)-1-((6-cyano-5-(trifluoromethyl)pyridin-3-yl)amino)-3-(4-cyanophenoxy)-2-methyl-1-oxopropan-2-yl nicotinate] | lower concentrations of the compound and higher concentrations of metabolites were detected in serum and brain | 3.32 | 
C[C@](O)(COc1ccc(C#N)nc1)C(=O)Nc1ccc(C#N)c(C(F)(F)F)c1 [Example 4, (S)-N-(4-cyano-3-(trifluoromethyl)phenyl)-3-((6-cyanopyridin-3-yl)oxy)-2-hydroxy-2-methylpropionamide] |  | 2.53 | 
CN1C=CCC(C(=O)O[C@@](C)(COc2ccc(C#N)cc2)C(=O)Nc2ccc(C#N)c(C(F)(F)F)c2)=C1 [Example 35, (S)-1-((4-cyano-3-(trifluoromethyl)phenyl)amino)-3-(4-cyanophenoxy)-2-methyl-1-oxopropan-2-yl 1-methyl-1,4-dihydropyridine-3-carboxylate] |  | 4.45 | 
CCC(=O)O[C@@](C)(COc1ccc(C#N)cc1)C(=O)Nc1cnc(C#N)c(C(F)(F)F)c1 [Example 28, (S)-1-((6-cyano-5-(trifluoromethyl)pyridin-3-yl)amino)-3-(4-cyanophenoxy)-2-methyl-1-oxopropan-2-yl-propionate] | lower concentrations of the compound and higher concentrations of metabolites were detected in serum and brain |  | 
C[C@](O)(COc1ccc(C#N)nc1)C(=O)Nc1cnc(C#N)c(C(F)(F)F)c1 [Example 5, (S)-N-(6-cyano-5-(trifluoromethyl)pyridin-3-yl)-3-((6-cyanopyridin-3-yl)oxy)-2-hydroxy-2-methylpropionamide] |  | 1.61 | 
C[C@@](COc1ccc(C#N)cc1)(OC(=O)CCCC[C@@H]1CCSS1)C(=O)Nc1cnc(C#N)c(C(F)(F)F)c1 [Example 15, (S)-1-((6-cyano-5-(trifluoromethyl)pyridin-3-yl)amino)-3-(4-cyanophenoxy)-2-methyl-1-oxopropyl-2-yl 5-((R)-1,2-dithiolan-3-yl) pentanoate] | no effective concentration of the compound was detected in serum and brain |  | 
